# Measured values from patent US20240173432A1, “Compositions and Methods for Treatment of Myotonic Dystrophy Type 1 with CRISPR/SluCas9” (Vertex Pharmaceuticals Incorporated, priority 2021, published 2024).
# Experiments:
# [1] = tested on: CTG repeat in the 3′ UTR of human DMPK gene; experiment: Dual-cut screening: CTG repeat excision efficiency by loss-of-signal ddPCR; format: cell-based; settings: sgRNA pair, primary DM1 patient myoblasts; for Excision efficiency (by ddPCR): 3 μM DNA-PKi Compound 6 for 48 hours; for Excision efficiency by ddPCR (Vehicle): vehicle (DMSO)
# Method: (§1) RNPs were assembled with recombinant SluCas9 protein and chemically modified sgRNAs at a ratio of 1:3 (protein:sgRNA). For SINGLE-cut screening, RNP complexes were assembled with 30 pmol of SluCas9 and 90 pmol of sgRNA in P5 Primary Cell Nucleofector Solution (Lonza). After incubation at room temperature for 20 minutes, 10 μL of RNP complex were mixed with two hundred thousand of primary myoblasts resuspended in 10 μL of P5 Nucleofector Solution. For DOUBLE-cut screening, RNP complexes were first assembled for individual sgRNAs with 20 pmol of SluCas9 protein and 60 pmol of sgRNAs in 5 μL of P5 Nucleofector Solution. After incubation at room temperature for 20 minutes, the two RNP complexes (one for upstream sgRNA and one for downstream sgRNA) were mixed at 1:1 ratio and then further mixed with two hundred thousand of primary myoblasts resuspended in 10 μL of P5 Nucleofector Solution.
# (§2) The Nucleofector 96-well Shuttle System (Lonza) was used to deliver the SluCa9/sgRNA RNPs into primary DM1 patient myoblasts using the nucleofection program CM138. Following nucleofection, myoblasts from each well of nucleofection shuttle were split into six wells of the 96-well cell culture plate (Greiner, 655090) coated with matrigel. The first three wells were treated with DMSO for 48 hrs before changing to fresh myoblast growth medium, and the other three wells were treated with 3 μM of DNA-PKi Compound 6 for 48 hrs before changing to fresh myoblast growth medium. 72 hrs post nucleofection, two wells of DMSO-treated myoblasts and two wells of DNA-PKi-treated myoblasts from each nucleofection were harvested for genomic DNA extraction using the Kingfisher Flex purification system (Thermal Fisher), whereas one well of DMSO-treated myoblasts and one well of DNA-PKi-treated myoblasts were stained for RNA foci by FISH staining.
# The primers and probes of ddPCR are designed using the online primer design software Primer3Plus (http://www.bioinformatics.nl/cgi-bin/primer3plus/primer3plus.cgi). In some embodiments, two target primers/probe sets were used to detect CTG repeat excision, and a reference primers/probe set were used to amplify a region located in Exon 1 of human DMPK gene and to serve as a reference control for the target sets. The 24 μL of ddPCR reaction consists of 12 μL of Supermix for Probes (no dUTP) (Bio-Rad Laboratories), 1 μL of Reference primers mix (21.6 μM), 1 μL of Reference probe (6 μM), 1 μL of Target primers mix (21.6 μM), 1 μL of Target probe (6 μM), and 8 μL of sample genomic DNA. Droplets were generated using probe oil with the QX200 Droplet Generator (Bio-Rad Laboratories). Droplets were transferred to a 96-well PCR plate, sealed and cycled in a C1000 deep well Thermocycler (Bio-Rad Laboratories) under the following cycling protocol: 1 cycle at 95° C. for 10 min; 40 cycles of 94° C. for 30 see, and 58° C. for 1 min; 1 cycle at 98° C. for 10 min (for enzyme inactivation). The cycled plate was then transferred and read in the FAM and HEX channels using the Bio-Rad QX200 Droplet Reader (Bio-Rad Laboratories). ddPCR analysis is performed with the Bio-Rad QuantaSoft Pro Software.
# (§3) To assess the efficiency of SluCas9 sgRNA pairs for inducing CTG repeat excision, Dual-cut screening was performed in which individual SluCas9 sgRNAs and recombinant SluCas9 protein were assembled into ribonucleoprotein (RNP) and delivered into primary DM1 patient myoblasts. Nucleofected myoblasts were treated with either DMSO (vehicle) or 3 μM of DNA-dependent Protein Kinase Inhibitor (DNA-PKi) Compound 6 for 48 hours. 72 hours post-nucleofection, myoblasts were subjected to either genomic DNA isolation or RNA foci staining by fluorescence in situ hybridization (FISH).
# CRISPR repeat excision efficiency was assessed for each of the 88 pairs (FIG. 8A-B and Table 5). CTG repeat excision efficiency percentages are shown for vehicle (DMSO; white bars) and with DNA-PKi (black bars) (FIG. 8B and Table 5).
# [2] = tested on: CUG foci in primary DM1 patient myoblasts; experiment: Dual-cut screening: FISH staining of CUG RNA foci; format: cell-based, human; settings: sgRNA pair, primary DM1 patient myoblasts; for % of CUG foci free nuclei (DNA-PKi): 3 μM DNA-PKi Compound 6 for 48 hours; for % of CUG foci free nuclei (Vehicle): vehicle (DMSO)
# Method: as §1, §2
# Primary myoblasts were fixed for 15 min with 4% paraformaldehyde (PFA) and washed five times with 1×PBS for 10 min each at room temperature. Before staining, cells were permeabilized with 0.5% triton X-100 in 1×PBS for 5 min at room temperature, and then washed with 30% formamide and 2× saline-sodium citrate (SSC) mixture for 10 min at room temperature. Cells were then stained with 1 ng/μL of Cy3-PNA(CAG)5 probe (PNA Bio, F5001) diluted in 30% formamide, 2×SSC, 2 μg/mL BSA, 66 μg/mL yeast tRNA, and 2 mM vanadyl complex for 15 min at 80° C. Following probe staining, cells were then washed in 30% formamide and 2×SSC mixture for 30 min at 42° C., then washed in 30% formamide and 2×SSC mixture for 30 min at 37° C., and then washed in 1×SSC solution for 10 min at room temperature, and finally washed in 1×PBS for 10 min at room temperature. Cells were next stained with anti-MBNL1 antibody (Santa Cruz, 3A4) diluted in 1% bovine serum albumin (BSA) for overnight at 4° C., and washed twice with 1×PBS for 10 min each at room temperature. Cells were then incubated with the secondary antibody goat anti-rabbit Alexa 647 (Thermo Fisher, A32728) diluted in 1% BSA for 1 hr at room temperature, and washed twice with 1×PBS for 10 min each at room temperature. Next, cells were stained with Hoechst solution (Thermo Fisher, H3569) at 0.1 mg/ml for 5 min, and washed once with 1×PBS for 5 min. PBS was aspirated and fresh 100 μl of fresh PBS is added to each well. High-throughput acquisition of images was completed with the ImageXpress Micro Confocal High-Content Imaging System (Molecular Devices). RNA foci quantifications were accomplished with a customized analysis module of the MetaXpress program (Molecular Devices).
# as §3, with “72 hours post-nucleofection, myoblasts were subjected to either genomic DNA isolation or RNA foci staining by fluorescence in situ hybridization (FISH).” left out
# [3] = tested on: 3′ UTR of the human DMPK gene; experiment: Single-cut screening: indel editing efficiency by Sanger sequencing and ICE analysis in primary DM1 patient myoblasts; format: cell-based; settings: vehicle-treated samples; for Indel efficiency: single SluCas9 sgRNA RNP in primary DM1 patient myoblasts, Sanger sequencing and ICE analysis
# How it was run: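 Indels were estimated by ICE from Sanger chromatograms of PCR amplicons covering the DMPK 3′ UTR wild-type allele, using only vehicle-treated samples; sgRNAs with R2<0.9 are flagged. Samples came from primary DM1 patient myoblasts (2 × 10^5) harvested 72 h after nucleofection with 30 pmol SluCas9 and 90 pmol single sgRNA RNP.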
# [4] = tested on: CUG foci in primary DM1 patient myoblasts; experiment: Single-cut screening: FISH staining of CUG RNA foci; format: cell-based, human; settings: single sgRNA, primary DM1 patient myoblasts; for % of CUG foci free nuclei (DNA-PKi): DNA-PKi treated
# How it was run: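 CD56-purified primary DM1 patient myoblasts nucleofected with SluCas9:sgRNA RNP (30:90 pmol, single-cut), then DMSO or 3 μM DNA-PK inhibitor for 48 h. At 72 h post-nucleofection, cells fixed and stained for CUG foci with Cy3-PNA(CAG)5 probe (1 ng/μL, 80 °C), co-stained for MBNL1 and Hoechst, imaged by high-content confocal microscopy.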
# [5] = tested on: CAG foci in primary DM1 patient myoblasts; experiment: Single-cut screening: CAG foci staining; format: cell-based, human; settings: single sgRNA; for % of CAG foci positive nuclei (DNA-PKi): DNA-PKi treated
# How it was run: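 Primary DM1 patient myoblasts were PFA-fixed and hybridized with […] (1 ng/μL, 15 min at 80° C) in 30% formamide/2×SSC, followed by anti-MBNL1 immunostaining and Hoechst counterstain. CAG RNA foci were quantified by high-content confocal imaging after single-cut SuCas9 sgRNA editing.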
Substance,Excision efficiency (by ddPCR) [1],Excision efficiency by ddPCR (Vehicle) [1],% of CUG foci free nuclei (DNA-PKi) [2] [%],% of CUG foci free nuclei (Vehicle) [2] [%],Indel efficiency [3] [%],% of CUG foci free nuclei (DNA-PKi) [4] [%],% of CUG foci free nuclei (Vehicle) [4] [%],% of CAG foci positive nuclei (DNA-PKi) [5] [%],% of CAG foci positive nuclei (Vehicle) [5] [%],"indel efficiency (Sanger sequencing and ICE analysis) ([3]; single-cut, SluCas9 RNP, 72 hrs post nucleofection, wild-type allele)"
"SluU59 + SluD56 (guide 1 CGCGGCCGGCGAACGGGGCTCG; guide 2 CCAGCCGGCTCCGCCCGCTTCG; guide RNA; listed as DNA, chemistry not fully specified)",55.14,35.6,84.48,46.4,–,–,–,–,–,–
"SluU63 + SluD48 (guide 1 GGGGCTCGAAGGGTCCTTGTAG; guide 2 GAGAGCAGCGCAAGTGAGGAGG; guide RNA; listed as DNA, chemistry not fully specified)",94.25,63.77,90.03,73.73,–,–,–,–,–,–
"SluU21 + SluD18 (guide 1 GCTCGGAGCGGTTGTGAACTGG; guide 2 TGGAGGATGGAACACGGACGGC; guide RNA; listed as DNA, chemistry not fully specified)",65.52,45.61,89.21,54.26,–,–,–,–,–,–
ACGGCCCGGCTTGCTGCCTTCC (guide RNA; chemistry not fully specified) [SluD17],–,–,–,–,33,21.7,12.25,1.47,2.07,–
TTTATTCGCGAGGGTCGGGGGT (guide RNA; chemistry not fully specified) [SluD91],–,–,–,–,33,21.28,22.42,4.23,1,–
GGGCCTTTTATTCGCGAGGGTC (guide RNA; chemistry not fully specified) [SluD95],–,–,–,–,28,27.23,21.81,2.19,1.3,–
"CTTGTGCATGACGCCCTGCTCT (listed as DNA, chemistry not fully specified) [SluD32]",–,–,–,–,94,26.23,19.22,1.31,1.43,high editing IN4DEL efficiency
GGTCCTGTAGCCTGTCAGCGAG (guide RNA; chemistry not fully specified) [SluD69],–,–,–,–,14,27.98,10.88,2.13,1.3,–
GTATTTATTGTCTGTCCCCACC (guide RNA; chemistry not fully specified) [SluD84],–,–,–,–,10,30.25,9.15,3.03,1.28,–
CAAAACGTGGATTGGGGTTGTT (guide RNA; chemistry not fully specified) [SluD72],–,–,–,–,5,28.82,16.2,2.33,2.62,–
AAAACGTGGATTGGGGTTGTTG (guide RNA; chemistry not fully specified) [SluD71],–,–,–,–,23,23.51,9.75,2.27,1.38,–
AGATGGAGGGCCTTTTATTCGC (guide RNA; chemistry not fully specified) [SluD99],–,–,–,–,1,22.16,22.87,2.23,0.73,–
TCTTGTGCATGACGCCCTGCTC (guide RNA; chemistry not fully specified) [SluD31],–,–,–,–,63,23.95,14.17,3.21,3.06,–
GGGGCGCGGGATCCCCGAAAAA (guide RNA; chemistry not fully specified) [SluD44],–,–,–,–,24,36.44,8.05,2.29,1.49,–
